1 cell line from the supplement of paper PMC10307832 can be followed below.

Common to all, as to assay: relative viability (nuclei count vs DMSO), 5 days (fraction); higher = more cells survive
Compound in the test “RO-3306 + Palbociclib”: C1=CC2=C(C=CC(=C2)C=C3C(=O)NC(=NCC4=CC=CS4)S3)N=C1 [RO-3306] + CC(=O)c1c(C)c2cnc(Nc3ccc(N4CCNCC4)cn3)nc2n(C2CCCC2)c1=O [Palbociclib] (partner 0.5 µM)
Put shortly: (§1)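 Medians of duplicate plates are given as relative viability. That measure is the nuclei count in treated wells divided by the count in vehicle wells. Counts were taken on 4× images of lung cancer cell lines in 1536-well plates, 5 days after pin-tool dosing the day after seeding with one drug alone or a fixed anchor-drug dose plus five library-drug doses (not always all listed) in √10 steps.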

Compound in test [1]: O=S(=O)(c1ccccc1)N(CC(F)(F)F)c1ccc(C(O)(C(F)(F)F)C(F)(F)F)cc1 + CCNC(=O)c1noc(-c2cc(C(C)C)c(O)cc2O)c1-c1ccc(CN2CCOCC2)cc1 [Luminespib] (partner 0.01 µM)
The gist of the method: as §1

Compound in the test “RO-3306 + Dasatinib”: C1=CC2=C(C=CC(=C2)C=C3C(=O)NC(=NCC4=CC=CS4)S3)N=C1 [RO-3306] + Cc1nc(Nc2ncc(C(=O)Nc3c(C)cccc3Cl)s2)cc(N2CCN(CCO)CC2)n1 [Dasatinib] (partner 0.075 µM)
Put shortly:
as §1

Compound in test [2]: O=S(=O)(c1ccccc1)N(CC(F)(F)F)c1ccc(C(O)(C(F)(F)F)C(F)(F)F)cc1 + CC(=O)c1c(C)c2cnc(Nc3ccc(N4CCNCC4)cn3)nc2n(C2CCCC2)c1=O [Palbociclib] (partner 0.5 µM)
Put shortly: as §1

As to UMC-11, the relative viability came out at 0.305 with RO-3306 + Palbociclib (first compound 0.01 µM); 0.319 with RO-3306 + Palbociclib (first compound 0.03162 µM); 0.297 with RO-3306 + Palbociclib (first compound 0.1 µM); 0.309 with RO-3306 + Palbociclib (first compound 0.3162 µM); 0.277 with RO-3306 + Palbociclib (first compound 1 µM); 1.19 in test [1] (first compound 0.8 µM). Also, the relative viability was 1.13 in test [1] (first compound 2.53 µM); 1.13 in test [1] (first compound 8 µM); 0.553 with RO-3306 + Dasatinib (first compound 0.01 µM); 0.341 with RO-3306 + Dasatinib (first compound 0.03162 µM); 0.432 with RO-3306 + Dasatinib (first compound 0.1 µM); 0.546 with RO-3306 + Dasatinib (first compound 0.3162 µM). The relative viability with RO-3306 + Dasatinib (first compound 1 µM) is 0.453; in test [2] (first compound 0.8 µM) it was 0.339; in test [2] (first compound 2.53 µM), 0.346; in test [2] (first compound 8 µM) it was 0.311.
